# *1 amine or outer side, *2 acyl side, *3 side chain or, on linkers, in order; H or OH if unused. Where a SMILES comes first, the peptide text is derived from it. [ ]: non-standard residue; d: D form. The star is where a group is joined. X12 = COc1ccc(COC(C)(C)CC(C(=O)[*:2])N(C)[*:1])cc1; X3 = CC=CCC(C)C(O)C(C(=O)[*:2])N(C)[*:1]; X9 = C=CCOC(C)(C)CC(C(=O)[*:2])N(C)[*:1]; X13 = CCN(CC)CCCSC(C(=O)[*:2])N(C)[*:1]; X5 = CSCOC(C)(C)CC(C(=O)[*:2])N(C)[*:1]; X7 = CN(C(SCCCN1CCOCC1)C(=O)[*:2])[*:1]; X4 = CCN(CC)CCSC(C(=O)[*:2])N(C)[*:1]; NMeI = CC[CH](C)[CH](NC)C(=O)O; NMeL = CN[CH](CC(C)C)C(=O)O; NMeV = CN[CH](C(=O)O)C(C)C; Et2NCH2CH2 = CCN(CC)CC*; NMeC = CN[CH](CS)C(=O)O; Abu = CC[CH](N)C(=O)O
# Test system: HCV replicon in cell line ET (luc-ubi-neo/ET), Huh7 human hepatoma
# Experiment: HCV subgenomic replicon assay, luciferase end point
# Format: cell-based
# Conditions: HCV subgenomic replicon, cell line ET (luc-ubi-neo/ET) Huh7, luciferase end point; read-out: Antiviral activity EC50
row,Molecule,EC50
1,CC=CCC(C)C(O)C1C(=O)NC(CC)C(=O)N(C)C(CSCCN(CC)CC(C)(C)C)C(=O)N(C)C(CC(C)(C)O)C(=O)NC(C(C)C)C(=O)N(C)C(CC(C)C)C(=O)NC(C)C(=O)NC(C)C(=O)N(C)C(CC(C)C)C(=O)N(C)C(CC(C)C)C(=O)N(C)C(C(C)C)C(=O)N1C (stereo not shown),60 nM
2,"C/C=C/C[C@@H](C)[C@@H](O)[C@H]1C(=O)N[C@@H](CC)C(=O)N(C)[C@H](CSCCN(C)C)C(=O)N(C)[C@@H](CC(C)(C)O)C(=O)N[C@@H](C(C)C)C(=O)N(C)[C@@H](CC(C)C)C(=O)N[C@@H](C)C(=O)N[C@H](C)C(=O)N(C)[C@@H](CC(C)C)C(=O)N(C)[C@@H](CC(C)C)C(=O)N(C)[C@@H](C(C)C)C(=O)N1C (single isomer, unassigned; isomer b)",130 nM
3,CC=CCC(C)C(O)C1C(=O)NC(CC)C(=O)N(C)C(CSCCN(C)CC(C)(C)C)C(=O)N(C)C(CC(C)(C)O)C(=O)NC(C(C)C)C(=O)N(C)C(CC(C)C)C(=O)NC(C)C(=O)NC(C)C(=O)N(C)C(CC(C)C)C(=O)N(C)C(CC(C)C)C(=O)N(C)C(C(C)C)C(=O)N1C (stereo not shown),70 nM
4,CC=CCC(C)C(O)C1C(=O)NC(CC)C(=O)N(C)C(COCCCN(CC)CC)C(=O)N(C)C(CC(C)(C)OC)C(=O)NC(C(C)C)C(=O)N(C)C(CC(C)C)C(=O)NC(C)C(=O)NC(C)C(=O)N(C)C(CC(C)C)C(=O)N(C)C(CC(C)C)C(=O)N(C)C(C(C)C)C(=O)N1C (stereo not shown),100 nM
5,C/C=C/C[C@@H](C)[C@@H](O)[C@H]1C(=O)N[C@@H](CC)C(=O)N(C)[C@H](COCCCN2CCOCC2)C(=O)N(C)[C@@H](CC(C)(C)O)C(=O)N[C@@H](C(C)C)C(=O)N(C)[C@@H](CC(C)C)C(=O)N[C@@H](C)C(=O)N[C@H](C)C(=O)N(C)[C@@H](CC(C)C)C(=O)N(C)[C@@H](CC(C)C)C(=O)N(C)[C@@H](C(C)C)C(=O)N1C [[(R)-(3-(N-Morpholino)propoxy)methyl-Sar]-3-[(γ-hydroxy)-N-MeLeu]-4-cyclosporin],90 nM
6,"CC=CCC(C)C(O)C1C(=O)NC(CC)C(=O)N(C)C(CSCCN(CC)CC)C(=O)N(C)C(C(C)CC)C(=O)NC(C(C)C)C(=O)N(C)C(CC(C)C)C(=O)NC(C)C(=O)NC(C)C(=O)N(C)C(CC(C)C)C(=O)N(C)C(CC(C)C)C(=O)N(C)C(C(C)C)C(=O)N1C [[(S)-(2-(N,N-Diethylamino)ethylthio)methyl-Sar]-3-[N-MeIle]-4-cyclosporin] (cyclo([X3][Abu][NMeC](Et2NCH2CH2)[NMeI]V[NMeL]AA[NMeL][NMeL][NMeV]); configuration not given here)",100 nM
7,C/C=C/C[C@@H](C)[C@@H](O)[C@H]1C(=O)N[C@@H](CC)C(=O)N(C)[C@H](COCCCN2CCCCC2)C(=O)N(C)[C@@H](CC(C)(C)O)C(=O)N[C@@H](C(C)C)C(=O)N(C)[C@@H](CC(C)C)C(=O)N[C@@H](C)C(=O)N[C@H](C)C(=O)N(C)[C@@H](CC(C)C)C(=O)N(C)[C@@H](CC(C)C)C(=O)N(C)[C@@H](C(C)C)C(=O)N1C [[(R)-(3-(N-Piperidinyl)propoxy)methyl-Sar]-3-[(γ-hydroxy)-N-MeLeu]-4-cyclosporin],150 nM
8,CC=CCC(C)C(O)C1C(=O)NC(CC)C(=O)N(C)C(CSCCN(CC(C)C)CC(C)C)C(=O)N(C)C(CC(C)(C)O)C(=O)NC(C(C)C)C(=O)N(C)C(CC(C)C)C(=O)NC(C)C(=O)NC(C)C(=O)N(C)C(CC(C)C)C(=O)N(C)C(CC(C)C)C(=O)N(C)C(C(C)C)C(=O)N1C (stereo not shown),120 nM
9,CC=CCC(C)C(O)C1C(=O)NC(CC)C(=O)N(C)C(COCCN2CCCC2)C(=O)N(C)C(CC(C)(C)O)C(=O)NC(C(C)C)C(=O)N(C)C(CC(C)C)C(=O)NC(C)C(=O)NC(C)C(=O)N(C)C(CC(C)C)C(=O)N(C)C(CC(C)C)C(=O)N(C)C(C(C)C)C(=O)N1C [[(R)-(2-(N-Pyrrolidino)ethoxy)methyl-Sar]-3-[(γ-hydroxy)-N-MeLeu]-4-cyclosporin],200 nM
10,"CC=CCC(C)C(O)C1C(=O)NC(CC)C(=O)N(C)C(SCCCN(CC)CC)C(=O)N(C)C(C(C)CC)C(=O)NC(C(C)C)C(=O)N(C)C(CC(C)C)C(=O)NC(C)C(=O)NC(C)C(=O)N(C)C(CC(C)C)C(=O)N(C)C(CC(C)C)C(=O)N(C)C(C(C)C)C(=O)N1C [[(S)-3-(N,N-Diethylamino)propylthio-Sar]-3-[N-MeIle]-4-cyclosporin] (cyclo([X3][Abu][X13][NMeI]V[NMeL]AA[NMeL][NMeL][NMeV]); configuration not given here)",80 nM

# Same assay, conditions: Hepatitis C virus, Huh-7, HCV subgenomic replicon, cell line ET (luc-ubi-neo/ET) Huh7, luciferase end point; read-out: Antiviral activity EC50
row,Molecule,EC50
1,"C/C=C/C[C@@H](C)[C@@H](O)[C@H]1C(=O)N[C@@H](CC)C(=O)N(C)[C@H](C)C(=O)N(CC)[C@@H](C(C)C)C(=O)N[C@@H](C(C)C)C(=O)N(C)[C@@H](CC(C)C)C(=O)N[C@@H](C)C(=O)N[C@H](C)C(=O)N(C)[C@@H](CC(C)C)C(=O)N(C)[C@@H](CC(C)C)C(=O)N(C)[C@@H](C(C)C)C(=O)N1C [[D-N-MeAla]-3-[N-EtVal]-4-cyclosporin, reference compound]",70 nM

# Same assay, conditions: Hepatitis C virus, Huh-7, Table 14, HCV replicon luciferase; read-out: Antiviral activity EC50
row,Molecule,EC50
1,C/C=C/C[C@@H](C)[C@@H](O)[C@H]1C(=O)N[C@@H](CC)C(=O)N(C)[C@H](COCCN(CC)CC)C(=O)N(C)[C@@H](CC(C)(C)OC)C(=O)N[C@@H](C(C)C)C(=O)N(C)[C@@H](CC(C)C)C(=O)N[C@@H](C)C(=O)N[C@H](C)C(=O)N(C)[C@@H](CC(C)C)C(=O)N(C)[C@@H](CC(C)C)C(=O)N(C)[C@@H](C(C)C)C(=O)N1C,20 nM
2,C/C=C/C[C@@H](C)[C@@H](O)[C@H]1C(=O)N[C@@H](CC)C(=O)N(C)[C@H](CSCCCN2CCOCC2)C(=O)N(C)[C@@H](CC(C)(C)O)C(=O)N[C@@H](C(C)C)C(=O)N(C)[C@@H](CC(C)C)C(=O)N[C@@H](C)C(=O)N[C@H](C)C(=O)N(C)[C@@H](CC(C)C)C(=O)N(C)[C@@H](CC(C)C)C(=O)N(C)[C@@H](C(C)C)C(=O)N1C,20 nM
3,C/C=C/C[C@@H](C)[C@@H](O)[C@H]1C(=O)N[C@@H](CC)C(=O)N(C)[C@H](CSCCCN(CC)CC)C(=O)N(C)[C@@H](CC(C)(C)O)C(=O)N[C@@H](C(C)C)C(=O)N(C)[C@@H](CC(C)C)C(=O)N[C@@H](C)C(=O)N[C@H](C)C(=O)N(C)[C@@H](CC(C)C)C(=O)N(C)[C@@H](CC(C)C)C(=O)N(C)[C@@H](C(C)C)C(=O)N1C,30 nM
4,C/C=C/C[C@@H](C)[C@@H](O)[C@H]1C(=O)N[C@@H](CC)C(=O)N(C)[C@H](CSCCN(C)C(C)C)C(=O)N(C)[C@@H](CC(C)(C)O)C(=O)N[C@@H](C(C)C)C(=O)N(C)[C@@H](CC(C)C)C(=O)N[C@@H](C)C(=O)N[C@H](C)C(=O)N(C)[C@@H](CC(C)C)C(=O)N(C)[C@@H](CC(C)C)C(=O)N(C)[C@@H](C(C)C)C(=O)N1C,40 nM

# Same assay, conditions: Hepatitis C virus, Huh-7, Table 16, HCV replicon luciferase; read-out: Antiviral activity EC50
row,Molecule,EC50
1,"C/C=C/C[C@@H](C)[C@@H](O)[C@H]1C(=O)N[C@@H](CC)C(=O)N(C)[C@H](C)C(=O)N(CC)[C@@H](C(C)C)C(=O)N[C@@H](C(C)C)C(=O)N(C)[C@@H](CC(C)C)C(=O)N[C@@H](C)C(=O)N[C@H](C)C(=O)N(C)[C@@H](CC(C)C)C(=O)N(C)[C@@H](CC(C)C)C(=O)N(C)[C@@H](C(C)C)C(=O)N1C [[D-N-MeAla]-3-[N-EtVal]-4-cyclosporin, reference compound]",50 nM

# Same assay, conditions: Table 12, HCV replicon luciferase; read-out: Antiviral activity EC50
row,Molecule,EC50
1,CC=CCC(C)C(O)C1C(=O)NC(CC)C(=O)N(C)C(SCCN(CC)CC)C(=O)N(C)C(CC(C)(C)OCSC)C(=O)NC(C(C)C)C(=O)N(C)C(CC(C)C)C(=O)NC(C)C(=O)NC(C)C(=O)N(C)C(CC(C)C)C(=O)N(C)C(CC(C)C)C(=O)N(C)C(C(C)C)C(=O)N1C (stereo not shown) (cyclo([X3][Abu][X4][X5]V[NMeL]AA[NMeL][NMeL][NMeV]); configuration not given here),110 nM
2,"(S)-2-(N,N-Diethylamino)ethylthio-Sar]-3-[N-MeIle]-4-cyclosporin",40 nM

# Same assay, conditions: Table 13, HCV replicon luciferase; read-out: Antiviral activity EC50
row,Molecule,EC50
1,C=CCOC(C)(C)CC1C(=O)NC(C(C)C)C(=O)N(C)C(CC(C)C)C(=O)NC(C)C(=O)NC(C)C(=O)N(C)C(CC(C)C)C(=O)N(C)C(CC(C)C)C(=O)N(C)C(C(C)C)C(=O)N(C)C(C(O)C(C)CC=CC)C(=O)NC(CC)C(=O)N(C)C(SCCCN2CCOCC2)C(=O)N1C [[(S)-3-(N-Morpholino)propylthio-Sar]-3-[(γ-allyloxy)-N-MeLeu]-4-cyclosporin] (cyclo([X3][Abu][X7][X9]V[NMeL]AA[NMeL][NMeL][NMeV]); configuration not given here),150 nM
2,CCCCC(C)C(O)C1C(=O)NC(CC)C(=O)N(C)CC(=O)N(C)C(CC(C)(C)OC)C(=O)NC(C(C)C)C(=O)N(C)C(CC(C)C)C(=O)NC(C)C(=O)NC(C)C(=O)N(C)C(CC(C)C)C(=O)N(C)C(CC(C)C)C(=O)N(C)C(C(C)C)C(=O)N1C (stereo not shown) [[(γ-Methoxy)-N-MeLeu]-4-dihydrocyclosporin],350 nM
3,CC=CCC(C)C(O)C1C(=O)NC(CC)C(=O)N(C)C(SCCCN2CCOCC2)C(=O)N(C)C(CC(C)(C)OCSC)C(=O)NC(C(C)C)C(=O)N(C)C(CC(C)C)C(=O)NC(C)C(=O)NC(C)C(=O)N(C)C(CC(C)C)C(=O)N(C)C(CC(C)C)C(=O)N(C)C(C(C)C)C(=O)N1C (stereo not shown) (cyclo([X3][Abu][X7][X5]V[NMeL]AA[NMeL][NMeL][NMeV]); configuration not given here),160 nM
4,CC=CCC(C)C(O)C1C(=O)NC(CC)C(=O)N(C)C(SCCCN2CCOCC2)C(=O)N(C)C(CC(C)(C)OCc2ccc(OC)cc2)C(=O)NC(C(C)C)C(=O)N(C)C(CC(C)C)C(=O)NC(C)C(=O)NC(C)C(=O)N(C)C(CC(C)C)C(=O)N(C)C(CC(C)C)C(=O)N(C)C(C(C)C)C(=O)N1C (stereo not shown) (cyclo([X3][Abu][X7][X12]V[NMeL]AA[NMeL][NMeL][NMeV]); configuration not given here),280 nM

# Same assay, conditions: Table 16, HCV replicon luciferase; read-out: Antiviral activity EC50
row,Molecule,EC50
1,CC=CCC(C)C(O)C1C(=O)NC(CC)C(=O)N(C)C(CSCCCCNCC(C)(C)C)C(=O)N(C)C(CC(C)(C)O)C(=O)NC(C(C)C)C(=O)N(C)C(CC(C)C)C(=O)NC(C)C(=O)NC(C)C(=O)N(C)C(CC(C)C)C(=O)N(C)C(CC(C)C)C(=O)N(C)C(C(C)C)C(=O)N1C (stereo not shown),40 nM
2,CC=CCC(C)C(O)C1C(=O)NC(CC)C(=O)N(C)C(CSCCCNCC(C)(C)C)C(=O)N(C)C(CC(C)(C)O)C(=O)NC(C(C)C)C(=O)N(C)C(CC(C)C)C(=O)NC(C)C(=O)NC(C)C(=O)N(C)C(CC(C)C)C(=O)N(C)C(CC(C)C)C(=O)N(C)C(C(C)C)C(=O)N1C (stereo not shown),50 nM
3,C/C=C/C[C@@H](C)[C@@H](O)[C@H]1C(=O)N[C@@H](CC)C(=O)N(C)[C@H](CSCCN2CCN(CC)CC2)C(=O)N(C)[C@@H](CC(C)(C)O)C(=O)N[C@@H](C(C)C)C(=O)N(C)[C@@H](CC(C)C)C(=O)N[C@@H](C)C(=O)N[C@H](C)C(=O)N(C)[C@@H](CC(C)C)C(=O)N(C)[C@@H](CC(C)C)C(=O)N(C)[C@@H](C(C)C)C(=O)N1C,60 nM

# Reference: patent US10647747B2, “Cyclosporin derivatives and uses thereof” (S&T Global Inc., priority 2010, dated 2020)
